ChEMBL document CHEMBL1157472, “Synthesis of 5''-branched derivatives of cyclic ADP-carbocyclic-ribose, a potent Ca2+-mobilizing agent: The first antagonists modified at the N1-ribose moiety” (Bioorg Med Chem Lett, 2008)
The source made the active and inactive calls. The calls are words filed in the database; no cut-off is given here.

Tests used:
[1] = Agonist activity at ryanodine receptor in sea urchin egg homogenates assessed as effect on calcium release by fluorimetry; format: functional, Lytechinus pictus
Lytechinus pictus = assay: Agonist activity at ryanodine receptor in sea urchin egg homogenates assessed as effect on calcium release at 30 uM by fluorimetry; format: functional, tissue-based
[2] = Antagonist activity at ryanodine receptor in sea urchin egg homogenates assessed as decrease in cADPcR-induced calcium release by fluorimetry; format: functional, tissue-based, Lytechinus pictus
[3] = Stability in human serum at 37 degC after 3 days; format: ADME, cell-free; settings: read-out: Stability

Row | EC50 [1] [µM] | Activity (Lytechinus pictus) | IC50 [2] [µM] | remaining at 72 h [3] [%] | SMILES
1 | 0.079 | – | – | – | Nc1c2ncn3c2nc[n+]1[C@@H]1C[C@H](COP(=O)([O-])OP(=O)(O)OC[C@H]2O[C@@H]3[C@H](O)[C@@H]2O)[C@@H](O)[C@H]1O
2 | – | inactive | 120 | – | NCC[C@@H]1OP(=O)([O-])OP(=O)(O)OC[C@H]2O[C@H]([C@H](O)[C@@H]2O)n2cnc3c(N)[n+](cnc32)[C@@H]2C[C@H]1[C@@H](O)[C@H]2O
3 | 0.21 | – | – | – | Nc1c2ncn3c2nc[n+]1[C@@H]1O[C@H](COP(=O)([O-])OP(=O)(O)OC[C@H]2O[C@@H]3[C@H](O)[C@@H]2O)[C@@H](O)[C@H]1O
4 | – | inactive | 73 | – | NCC[C@H]1OP(=O)([O-])OP(=O)(O)OC[C@H]2O[C@H]([C@H](O)[C@@H]2O)n2cnc3c(N)[n+](cnc32)[C@@H]2C[C@H]1[C@@H](O)[C@H]2O
5 | – | inactive | 19 | 89 | [N-]=[N+]=NCC[C@@H]1OP(=O)(O)OP(=O)([O-])OC[C@H]2O[C@H]([C@H](O)[C@@H]2O)n2cnc3c(N)[n+](cnc32)[C@@H]2C[C@H]1[C@@H](O)[C@H]2O
6 | – | inactive | 14 | – | [N-]=[N+]=NCC[C@H]1OP(=O)([O-])OP(=O)(O)OC[C@H]2O[C@H]([C@H](O)[C@@H]2O)n2cnc3c(N)[n+](cnc32)[C@@H]2C[C@H]1[C@@H](O)[C@H]2O
